Square brackets hold non-standard residues; d marks the D form. Peptide text beside a SMILES is read from it. Dab = NCC[C@H](N)C(=O)O; Aib = CC(C)(N)C(=O)O
Target: Glucagon Receptor (Homo sapiens, UniProt P47871)
Assay: Functional assay-cAMP synthesis (luciferase reporter, HEK293), glucagon receptor
Conditions: for % activity*: glucagon receptor
[1] = Table 8, wildtype glucagon = 100
[2] = EC50 at Glucagon Receptor (nM), Table 7

Sequence of Glucagon Receptor (P47871 26-477): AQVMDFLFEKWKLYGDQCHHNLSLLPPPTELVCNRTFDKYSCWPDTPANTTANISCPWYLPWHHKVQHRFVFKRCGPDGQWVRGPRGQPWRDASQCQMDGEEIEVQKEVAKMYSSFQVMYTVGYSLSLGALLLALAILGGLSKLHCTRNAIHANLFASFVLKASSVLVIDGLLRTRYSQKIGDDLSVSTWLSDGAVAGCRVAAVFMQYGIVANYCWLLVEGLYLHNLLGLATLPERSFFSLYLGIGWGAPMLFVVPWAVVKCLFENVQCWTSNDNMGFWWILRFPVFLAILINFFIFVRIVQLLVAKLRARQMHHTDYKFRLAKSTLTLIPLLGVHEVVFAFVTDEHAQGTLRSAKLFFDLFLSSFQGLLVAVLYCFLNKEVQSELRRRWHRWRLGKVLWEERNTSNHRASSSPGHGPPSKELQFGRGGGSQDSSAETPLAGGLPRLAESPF

SMILES	EC50 [2] [nM]	% activity* (Table 7) [%]	also measured
CC(=O)NCC[C@H](NC(=O)[C@H](CO)NC(=O)[C@@H](N)Cc1c[nH]cn1)C(=O)NCC(=O)N[C@H](C(=O)N[C@@H](Cc1ccccc1)C(=O)N[C@H](C(=O)N[C@@H](CO)C(=O)N[C@@H](CC(=O)O)C(=O)N[C@@H](Cc1ccc(O)cc1)C(=O)N[C@@H](CO)C(=O)N[C@@H](CCCCN)C(=O)N[C@@H](Cc1ccc(O)cc1)C(=O)N[C@@H](CC(C)C)C(=O)N[C@@H](CC(=O)O)C(=O)NC(C)(C)C(=O)N[C@@H](CCCNC(=N)N)C(=O)N[C@@H](CCCNC(=N)N)C(=O)N[C@@H](C)C(=O)N[C@@H](C)C(=O)N[C@@H](CC(=O)O)C(=O)N[C@@H](Cc1ccccc1)C(=O)N[C@H](C(=O)N[C@@H](C)C(=O)N[C@@H](Cc1c[nH]c2ccccc12)C(=O)N[C@@H](CC(C)C)C(=O)N[C@@H](CC(C)C)C(=O)N[C@@H](CC(=O)O)C(=O)N[C@H](C(=O)NCC(=O)N1CCC[C@H]1C(=O)N[C@@H](CO)C(=O)N[C@@H](CO)C(=O)NCC(=O)N[C@@H](C)C(=O)N1CCC[C@H]1C(=O)N1CCC[C@H]1C(=O)N1CCC[C@H]1C(=O)N[C@@H](CO)C(N)=O)[C@@H](C)O)C(C)C)[C@@H](C)O)[C@@H](C)O [SEQ ID NO: 72] (H-HS[Dab](Ac)GTFTSDYSKYLD[Aib]RRAADFVAWLLDTGPSSGAPPPS-NH2; N-terminus assumed)			% activity* [1]: 113%
CCCC[C@H](NC(=O)[C@H](CC(C)C)NC(=O)[C@H](Cc1c[nH]c2ccccc12)NC(=O)[C@H](C)NC(=O)[C@@H](NC(=O)[C@H](Cc1ccccc1)NC(=O)[C@H](CCC(=O)O)NC(=O)[C@H](C)NC(=O)[C@H](C)NC(=O)[C@H](CCCNC(=N)N)NC(=O)[C@H](CCCNC(=N)N)NC(=O)[C@@H](NC(=O)[C@H](CC(=O)O)NC(=O)[C@H](CC(C)C)NC(=O)[C@H](Cc1ccc(O)cc1)NC(=O)[C@H](CCCCN)NC(=O)[C@H](CO)NC(=O)[C@H](Cc1ccc(O)cc1)NC(=O)[C@H](CC(=O)O)NC(=O)[C@H](CO)NC(=O)[C@@H](NC(=O)[C@H](Cc1ccccc1)NC(=O)[C@@H](NC(=O)CNC(=O)[C@H](CNC(N)=O)NC(=O)[C@H](CO)NC(=O)[C@@H](N)Cc1c[nH]cn1)[C@@H](C)O)[C@@H](C)O)[C@@H](C)O)C(C)C)C(=O)N[C@@H](CC(=O)O)C(=O)N[C@@H](CCC(=O)O)C(=O)O [SEQ ID NO: 64]	0.48	13	
CC(=O)NCC[C@H](NC(=O)[C@H](CO)NC(=O)[C@@H](N)Cc1c[nH]cn1)C(=O)NCC(=O)N[C@H](C(=O)N[C@@H](Cc1ccccc1)C(=O)N[C@H](C(=O)N[C@@H](CO)C(=O)N[C@@H](CC(=O)O)C(=O)N[C@@H](Cc1ccc(O)cc1)C(=O)N[C@@H](CO)C(=O)N[C@@H](CCCCN)C(=O)N[C@@H](Cc1ccc(O)cc1)C(=O)N[C@@H](CC(C)C)C(=O)N[C@@H](CC(=O)O)C(=O)NC(C)(C)C(=O)N[C@@H](CCCNC(=N)N)C(=O)N[C@@H](CCCNC(=N)N)C(=O)N[C@@H](C)C(=O)N[C@@H](CO)C(=O)N[C@@H](CC(=O)O)C(=O)N[C@@H](Cc1ccccc1)C(=O)N[C@H](C(=O)N[C@@H](CO)C(=O)N[C@@H](Cc1c[nH]c2ccccc12)C(=O)N[C@@H](CC(C)C)C(=O)N[C@@H](CC(C)C)C(=O)N[C@@H](CC(=O)O)C(=O)N[C@@H](CCC(=O)O)C(=O)O)C(C)C)[C@@H](C)O)[C@@H](C)O [SEQ ID NO: 73] (H-HS[Dab](Ac)GTFTSDYSKYLD[Aib]RRASDFVSWLLDE-OH; N-terminus and C-terminus assumed)			% activity* [1]: 54%
CSCC[C@H](NC(=O)[C@H](CC(C)C)NC(=O)[C@H](Cc1c[nH]c2ccccc12)NC(=O)[C@H](CCC(N)=O)NC(=O)[C@@H](NC(=O)[C@H](Cc1ccccc1)NC(=O)[C@H](CC(=O)O)NC(=O)[C@H](CCC(N)=O)NC(=O)[C@H](C)NC(=O)[C@H](CCCNC(=N)N)NC(=O)[C@H](CCCNC(=N)N)NC(=O)[C@H](CO)NC(=O)[C@H](CC(=O)O)NC(=O)[C@H](CC(C)C)NC(=O)[C@H](Cc1ccc(O)cc1)NC(=O)[C@H](CCCCN)NC(=O)[C@H](CO)NC(=O)[C@H](Cc1ccc(O)cc1)NC(=O)[C@H](CC(=O)O)NC(=O)[C@H](CO)NC(=O)[C@@H](NC(=O)[C@H](Cc1ccccc1)NC(=O)[C@@H](NC(=O)CNC(=O)[C@H](CCC(N)=O)NC(=O)[C@H](CO)NC(=O)[C@@H](N)Cc1c[nH]cn1)[C@@H](C)O)[C@@H](C)O)C(C)C)C(=O)N[C@@H](CC(=O)O)C(=O)N[C@@H](CCC(=O)O)C(=O)O [D28, E29]			EC50 (EC50 at the glucagon receptor, Example 20): 0.06 nM
CCCC[C@H](NC(=O)[C@H](CC(C)C)NC(=O)[C@H](Cc1c[nH]c2ccccc12)NC(=O)[C@H](C)NC(=O)[C@@H](NC(=O)[C@H](Cc1ccccc1)NC(=O)[C@H](CCC(=O)O)NC(=O)[C@H](C)NC(=O)[C@H](C)NC(=O)[C@H](CCCNC(=N)N)NC(=O)[C@H](CCCNC(=N)N)NC(=O)[C@@H](NC(=O)[C@H](CC(=O)O)NC(=O)[C@H](CC(C)C)NC(=O)[C@H](Cc1ccc(O)cc1)NC(=O)[C@H](CCCCN)NC(=O)[C@H](CO)NC(=O)[C@H](Cc1ccc(O)cc1)NC(=O)[C@H](CC(=O)O)NC(=O)[C@H](CO)NC(=O)[C@@H](NC(=O)[C@H](Cc1ccccc1)NC(=O)[C@@H](NC(=O)CNC(=O)[C@H](CSCNC(C)=O)NC(=O)[C@H](CO)NC(=O)[C@@H](N)Cc1c[nH]cn1)[C@@H](C)O)[C@@H](C)O)[C@@H](C)O)C(C)C)C(=O)N[C@@H](CC(=O)O)C(=O)N[C@@H](CCC(=O)O)C(=O)O [SEQ ID NO: 62]	0.18	33	
CCCC[C@H](NC(=O)[C@H](CC(C)C)NC(=O)[C@H](Cc1c[nH]c2ccccc12)NC(=O)[C@H](C)NC(=O)[C@@H](NC(=O)[C@H](Cc1ccccc1)NC(=O)[C@H](CCC(=O)O)NC(=O)[C@H](C)NC(=O)[C@H](C)NC(=O)[C@H](CCCNC(=N)N)NC(=O)[C@H](CCCNC(=N)N)NC(=O)[C@@H](NC(=O)[C@H](CC(=O)O)NC(=O)[C@H](CC(C)C)NC(=O)[C@H](Cc1ccc(O)cc1)NC(=O)[C@H](CCCCN)NC(=O)[C@H](CO)NC(=O)[C@H](Cc1ccc(O)cc1)NC(=O)[C@H](CC(=O)O)NC(=O)[C@H](CO)NC(=O)[C@@H](NC(=O)[C@H](Cc1ccccc1)NC(=O)[C@@H](NC(=O)CNC(=O)[C@H](CCC(=O)NC)NC(=O)[C@H](CO)NC(=O)[C@@H](N)Cc1c[nH]cn1)[C@@H](C)O)[C@@H](C)O)[C@@H](C)O)C(C)C)C(=O)N[C@@H](CC(=O)O)C(=O)N[C@@H](CCC(=O)O)C(=O)O [SEQ ID NO: 65]	0.48	13	
CCCC[C@H](NC(=O)[C@H](CC(C)C)NC(=O)[C@H](Cc1c[nH]c2ccccc12)NC(=O)[C@H](C)NC(=O)[C@@H](NC(=O)[C@H](Cc1ccccc1)NC(=O)[C@H](CCC(=O)O)NC(=O)[C@H](C)NC(=O)[C@H](C)NC(=O)[C@H](CCCNC(=N)N)NC(=O)[C@H](CCCNC(=N)N)NC(=O)[C@@H](NC(=O)[C@H](CC(=O)O)NC(=O)[C@H](CC(C)C)NC(=O)[C@H](Cc1ccc(O)cc1)NC(=O)[C@H](CCCCN)NC(=O)[C@H](CO)NC(=O)[C@H](Cc1ccc(O)cc1)NC(=O)[C@H](CC(=O)O)NC(=O)[C@H](CO)NC(=O)[C@@H](NC(=O)[C@H](Cc1ccccc1)NC(=O)[C@@H](NC(=O)CNC(=O)[C@H](CCCNC(C)=O)NC(=O)[C@H](CO)NC(=O)[C@@H](N)Cc1c[nH]cn1)[C@@H](C)O)[C@@H](C)O)[C@@H](C)O)C(C)C)C(=O)N[C@@H](CC(=O)O)C(=O)N[C@@H](CCC(=O)O)C(=O)O [SEQ ID NO: 67]		7	

The next lines start with results.

EC50 [2] [nM]	% activity* (Table 7) [%]	SMILES	also measured
	55	CNC(=O)CC[C@H](NC(=O)[C@H](CO)NC(=O)[C@@H](N)Cc1c[nH]cn1)C(=O)NCC(=O)N[C@H](C(=O)N[C@@H](Cc1ccccc1)C(=O)N[C@H](C(=O)N[C@@H](CO)C(=O)N[C@@H](CC(=O)O)C(=O)N[C@@H](Cc1ccc(O)cc1)C(=O)N[C@@H](CO)C(=O)N[C@@H](CCCCN)C(=O)N[C@@H](Cc1ccc(O)cc1)C(=O)N[C@@H](CC(C)C)C(=O)N[C@@H](CC(=O)O)C(=O)NC(C)(C)C(=O)N[C@@H](CCCNC(=N)N)C(=O)N[C@@H](CCCNC(=N)N)C(=O)N[C@@H](C)C(=O)N[C@@H](C)C(=O)N[C@@H](CC(=O)O)C(=O)N[C@@H](Cc1ccccc1)C(=O)N[C@H](C(=O)N[C@@H](C)C(=O)N[C@@H](Cc1c[nH]c2ccccc12)C(=O)N[C@@H](CC(C)C)C(=O)N[C@@H](CCSC)C(=O)N[C@@H](CC(=O)O)C(=O)N[C@@H](CCC(=O)O)C(=O)O)C(C)C)[C@@H](C)O)[C@@H](C)O [SEQ ID NO: 70]	
	15	CSCC[C@H](NC(=O)[C@H](CC(C)C)NC(=O)[C@H](Cc1c[nH]c2ccccc12)NC(=O)[C@H](C)NC(=O)[C@@H](NC(=O)[C@H](Cc1ccccc1)NC(=O)[C@H](CC(=O)O)NC(=O)[C@H](C)NC(=O)[C@H](C)NC(=O)[C@H](CCCNC(=N)N)NC(=O)[C@H](CCCNC(=N)N)NC(=O)C(C)(C)NC(=O)[C@H](CC(=O)O)NC(=O)[C@H](CC(C)C)NC(=O)[C@H](Cc1ccc(O)cc1)NC(=O)[C@H](CCCCN)NC(=O)[C@H](CO)NC(=O)[C@H](Cc1ccc(O)cc1)NC(=O)[C@H](CC(=O)O)NC(=O)[C@H](CO)NC(=O)[C@@H](NC(=O)[C@H](Cc1ccccc1)NC(=O)[C@@H](NC(=O)CNC(=O)[C@H](CCC(N)=O)NC(=O)[C@H](CO)NC(=O)[C@@H](N)Cc1c[nH]cn1)[C@@H](C)O)[C@@H](C)O)C(C)C)C(=O)N[C@@H](CC(=O)O)C(=O)N[C@@H](CCC(=O)O)C(=O)O [SEQ ID NO: 68]	
	25	CCCC[C@H](NC(=O)[C@H](CC(C)C)NC(=O)[C@H](Cc1c[nH]c2ccccc12)NC(=O)[C@H](C)NC(=O)[C@@H](NC(=O)[C@H](Cc1ccccc1)NC(=O)[C@H](CCC(=O)O)NC(=O)[C@H](C)NC(=O)[C@H](C)NC(=O)[C@H](CCCNC(=N)N)NC(=O)[C@H](CCCNC(=N)N)NC(=O)[C@@H](NC(=O)[C@H](CC(=O)O)NC(=O)[C@H](CC(C)C)NC(=O)[C@H](Cc1ccc(O)cc1)NC(=O)[C@H](CCCCN)NC(=O)[C@H](CO)NC(=O)[C@H](Cc1ccc(O)cc1)NC(=O)[C@H](CC(=O)O)NC(=O)[C@H](CO)NC(=O)[C@@H](NC(=O)[C@H](Cc1ccccc1)NC(=O)[C@@H](NC(=O)CNC(=O)[C@H](CCC(N)=O)NC(=O)[C@H](CO)NC(=O)[C@@H](N)Cc1c[nH]cn1)[C@@H](C)O)[C@@H](C)O)[C@@H](C)O)C(C)C)C(=O)N[C@@H](CC(=O)O)C(=O)N[C@@H](CCC(=O)O)C(=O)O [SEQ ID NO: 61]	glucagon activity (cAMP induction) (FIG. 11): retains substantial glucagon activity

From US8450270B2 (Indiana University Research and Technology Corporation, priority 2008, dated 2013)
